Activity calls are given as the source filed them. No cut-off for these calls is given here.
Experiments:
[1] = target: T1, Interleukin-1 receptor-associated kinase 4 (Homo sapiens) (UniProt Q9NWZ3); experiment: (§1) Inhibition of IRAK4 (unknown origin)
T1 sequence (whole entry): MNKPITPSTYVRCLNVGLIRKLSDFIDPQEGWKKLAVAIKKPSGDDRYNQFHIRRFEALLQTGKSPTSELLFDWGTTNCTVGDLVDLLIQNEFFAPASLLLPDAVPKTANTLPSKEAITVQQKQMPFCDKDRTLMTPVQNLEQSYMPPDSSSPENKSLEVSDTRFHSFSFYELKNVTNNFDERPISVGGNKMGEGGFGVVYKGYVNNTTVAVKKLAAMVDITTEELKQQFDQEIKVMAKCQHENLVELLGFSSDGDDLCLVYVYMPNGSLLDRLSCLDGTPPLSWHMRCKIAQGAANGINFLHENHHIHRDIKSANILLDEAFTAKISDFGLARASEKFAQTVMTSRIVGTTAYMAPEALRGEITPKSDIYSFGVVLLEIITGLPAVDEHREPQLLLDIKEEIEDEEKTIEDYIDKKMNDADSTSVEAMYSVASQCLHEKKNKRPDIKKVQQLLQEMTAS

[2] = target: Protein cereblon/Interleukin-1 receptor-associated kinase 4 (Mus musculus) (UniProt Q8C7D2+Q8R4K2); experiment: PROTAC activity at IRAK4/CRBN in mouse BaF3 cells assessed as reduction in IRAK4 level at 100 nM incubated for 12 hrs by Western blot analysis relative to control; format: cell-based; design: scale not given: the % may be the effect or the level left
Chain of Protein cereblon/Interleukin-1 receptor-associated kinase 4 (Mus musculus) (Q8C7D2 whole entry, looked up, one chain of several): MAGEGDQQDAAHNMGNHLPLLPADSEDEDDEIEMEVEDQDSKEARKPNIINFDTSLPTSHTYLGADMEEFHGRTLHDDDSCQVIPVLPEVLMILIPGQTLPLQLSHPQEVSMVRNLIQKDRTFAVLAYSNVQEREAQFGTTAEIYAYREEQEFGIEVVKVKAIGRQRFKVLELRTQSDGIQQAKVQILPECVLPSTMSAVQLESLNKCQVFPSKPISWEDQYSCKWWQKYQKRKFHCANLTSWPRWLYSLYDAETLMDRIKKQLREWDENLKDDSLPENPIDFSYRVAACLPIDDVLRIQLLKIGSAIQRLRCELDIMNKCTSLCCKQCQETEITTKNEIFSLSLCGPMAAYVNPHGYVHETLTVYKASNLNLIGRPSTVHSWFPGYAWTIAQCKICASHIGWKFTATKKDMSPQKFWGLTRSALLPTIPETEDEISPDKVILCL

[3] = target: T2, Interleukin-1 receptor-associated kinase 4 (Homo sapiens, UniProt Q9NWZ3); experiment: as §1
T2 sequence (Q9NWZ3 whole entry): T1 sequence (whole entry)

[4] = target: T3, Interleukin-1 receptor-associated kinase 4 (Mus musculus) (UniProt Q8R4K2); experiment: Inhibition of IRAK4 in LPS-induced mouse RAW264.7 cells assessed as reduction in p38 level at 1 to 5 uM pretreated with LPS for 1 hr followed by compound administration and measured after 2 hrs by Western blotting analysis; format: cell-based; conditions: dose 1-5 µM
T3 sequence (whole entry): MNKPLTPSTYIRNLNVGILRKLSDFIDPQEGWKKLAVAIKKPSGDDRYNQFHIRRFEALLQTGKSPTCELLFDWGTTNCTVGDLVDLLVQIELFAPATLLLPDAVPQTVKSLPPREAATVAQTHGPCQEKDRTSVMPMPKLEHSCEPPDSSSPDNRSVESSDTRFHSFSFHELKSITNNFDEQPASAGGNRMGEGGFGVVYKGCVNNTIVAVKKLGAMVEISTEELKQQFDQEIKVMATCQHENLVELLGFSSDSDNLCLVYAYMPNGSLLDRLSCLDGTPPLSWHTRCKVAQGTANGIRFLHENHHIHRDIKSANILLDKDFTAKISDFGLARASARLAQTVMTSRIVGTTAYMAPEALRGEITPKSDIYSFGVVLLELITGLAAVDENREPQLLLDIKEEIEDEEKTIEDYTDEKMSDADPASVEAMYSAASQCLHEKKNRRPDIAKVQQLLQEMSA

RAW264.7 [5] = experiment: Activation of NF-kappaB pathway in LPS-induced mouse RAW264.7 cells expressing EGFP at 5 uM pretreated with compound for 1 hr followed by LPS-induction and measured after 6 hrs by flow cytometry analysis; format: cell-based; conditions: filed as activator, time 7.0 hrs
[6] = target: Dual specificity mitogen-activated protein kinase kinase 5 (Homo sapiens) (UniProt Q13163); experiment: Inhibition of MEK5 (unknown origin) at 1 uM relative to control
Chain of Dual specificity mitogen-activated protein kinase kinase 5 (Homo sapiens) (Q13163 whole entry): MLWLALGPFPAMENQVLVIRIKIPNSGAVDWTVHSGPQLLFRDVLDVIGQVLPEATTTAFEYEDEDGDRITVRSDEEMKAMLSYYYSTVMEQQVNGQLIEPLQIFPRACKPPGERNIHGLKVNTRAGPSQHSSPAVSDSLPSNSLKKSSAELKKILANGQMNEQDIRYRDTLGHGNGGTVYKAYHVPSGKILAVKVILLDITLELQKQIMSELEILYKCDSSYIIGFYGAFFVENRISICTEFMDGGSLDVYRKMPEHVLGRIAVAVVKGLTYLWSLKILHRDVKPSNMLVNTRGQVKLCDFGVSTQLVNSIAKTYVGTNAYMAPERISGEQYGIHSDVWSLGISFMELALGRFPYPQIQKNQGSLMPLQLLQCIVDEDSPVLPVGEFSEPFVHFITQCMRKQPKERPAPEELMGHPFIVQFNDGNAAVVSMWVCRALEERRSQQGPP

[7] = target: Tyrosine-protein kinase JAK3 (Homo sapiens) (UniProt P52333); experiment: Inhibition of JAK3 (unknown origin) at 1 uM relative to control
Chain of Tyrosine-protein kinase JAK3 (Homo sapiens) (P52333 whole entry): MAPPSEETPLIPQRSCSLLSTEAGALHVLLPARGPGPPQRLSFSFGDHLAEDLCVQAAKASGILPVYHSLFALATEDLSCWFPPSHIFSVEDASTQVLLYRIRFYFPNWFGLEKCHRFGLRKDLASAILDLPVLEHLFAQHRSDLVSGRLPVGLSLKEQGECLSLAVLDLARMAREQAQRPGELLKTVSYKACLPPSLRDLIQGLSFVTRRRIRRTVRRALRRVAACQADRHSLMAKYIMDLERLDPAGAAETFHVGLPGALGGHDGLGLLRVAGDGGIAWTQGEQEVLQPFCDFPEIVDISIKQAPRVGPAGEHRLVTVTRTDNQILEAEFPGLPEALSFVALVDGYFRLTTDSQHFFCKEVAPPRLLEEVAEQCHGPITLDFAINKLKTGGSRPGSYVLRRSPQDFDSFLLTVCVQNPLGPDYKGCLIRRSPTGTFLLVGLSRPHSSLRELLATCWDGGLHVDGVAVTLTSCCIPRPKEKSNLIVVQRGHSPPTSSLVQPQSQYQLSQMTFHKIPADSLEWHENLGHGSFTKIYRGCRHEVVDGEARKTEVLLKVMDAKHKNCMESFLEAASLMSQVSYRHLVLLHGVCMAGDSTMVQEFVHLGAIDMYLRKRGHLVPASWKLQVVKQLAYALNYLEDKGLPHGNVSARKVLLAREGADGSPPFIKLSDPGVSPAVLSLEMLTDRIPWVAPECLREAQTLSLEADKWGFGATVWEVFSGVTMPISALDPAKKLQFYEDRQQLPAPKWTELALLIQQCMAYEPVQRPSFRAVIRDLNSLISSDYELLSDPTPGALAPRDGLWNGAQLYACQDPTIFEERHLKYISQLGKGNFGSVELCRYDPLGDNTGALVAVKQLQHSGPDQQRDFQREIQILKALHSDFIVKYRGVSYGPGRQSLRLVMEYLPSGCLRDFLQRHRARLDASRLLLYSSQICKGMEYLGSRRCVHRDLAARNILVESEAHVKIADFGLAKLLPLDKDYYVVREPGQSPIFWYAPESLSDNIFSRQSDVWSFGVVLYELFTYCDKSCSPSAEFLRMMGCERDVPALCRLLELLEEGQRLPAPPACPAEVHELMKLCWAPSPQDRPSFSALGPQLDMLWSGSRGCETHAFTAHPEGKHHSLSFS

[8] = target: Serine/threonine-protein kinase RIO1 (Homo sapiens) (UniProt Q9BRS2); experiment: Inhibition of RIOK1 (unknown origin) at 1 uM relative to control
Chain of Serine/threonine-protein kinase RIO1 (Homo sapiens) (Q9BRS2 whole entry): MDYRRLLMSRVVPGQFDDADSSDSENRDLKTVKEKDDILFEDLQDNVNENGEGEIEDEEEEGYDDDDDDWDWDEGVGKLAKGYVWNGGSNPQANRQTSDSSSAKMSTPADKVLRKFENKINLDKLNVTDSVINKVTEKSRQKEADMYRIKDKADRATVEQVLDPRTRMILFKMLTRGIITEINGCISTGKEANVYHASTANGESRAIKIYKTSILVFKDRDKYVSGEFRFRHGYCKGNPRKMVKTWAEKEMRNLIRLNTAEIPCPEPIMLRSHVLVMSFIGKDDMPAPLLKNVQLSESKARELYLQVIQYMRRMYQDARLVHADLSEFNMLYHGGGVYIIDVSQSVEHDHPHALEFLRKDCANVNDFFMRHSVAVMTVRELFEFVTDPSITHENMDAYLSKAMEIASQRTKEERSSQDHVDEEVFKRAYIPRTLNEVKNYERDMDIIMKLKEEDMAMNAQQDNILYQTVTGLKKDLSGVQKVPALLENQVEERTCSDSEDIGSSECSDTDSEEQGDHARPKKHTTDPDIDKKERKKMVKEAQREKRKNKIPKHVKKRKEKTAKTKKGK

[9] = target: Citron Rho-interacting kinase (Homo sapiens) (UniProt O14578); experiment: Inhibition of CIT (unknown origin) at 1 uM relative to control
[10] = target: Serine/threonine-protein kinase RIO3 (Homo sapiens) (UniProt O14730); experiment: Inhibition of RIOK3 (unknown origin) at 1 uM relative to control
[11] = target: Tyrosine-protein kinase JAK1 (Homo sapiens) (UniProt P23458); experiment: Inhibition of JAK1 (unknown origin) at 1 uM relative to control
[12] = target: T3, Interleukin-1 receptor-associated kinase 4 (Mus musculus); experiment: Inhibition of IRAK4 in LPS-induced mouse RAW264.7 cells assessed as reduction in p65 nuclear translocation at 1 to 5 uM pretreated with LPS for 1 hr followed by compound administration and measured after 2 hrs by immunofluorescence analysis; format: cell-based; conditions: dose 1-5 µM
[13] = target: Interleukin-1 receptor-associated kinase 1 (Homo sapiens) (UniProt P51617); experiment: Inhibition of IRAK1 (unknown origin) at 1 uM relative to control
Chain of Interleukin-1 receptor-associated kinase 1 (Homo sapiens) (P51617 whole entry, looked up): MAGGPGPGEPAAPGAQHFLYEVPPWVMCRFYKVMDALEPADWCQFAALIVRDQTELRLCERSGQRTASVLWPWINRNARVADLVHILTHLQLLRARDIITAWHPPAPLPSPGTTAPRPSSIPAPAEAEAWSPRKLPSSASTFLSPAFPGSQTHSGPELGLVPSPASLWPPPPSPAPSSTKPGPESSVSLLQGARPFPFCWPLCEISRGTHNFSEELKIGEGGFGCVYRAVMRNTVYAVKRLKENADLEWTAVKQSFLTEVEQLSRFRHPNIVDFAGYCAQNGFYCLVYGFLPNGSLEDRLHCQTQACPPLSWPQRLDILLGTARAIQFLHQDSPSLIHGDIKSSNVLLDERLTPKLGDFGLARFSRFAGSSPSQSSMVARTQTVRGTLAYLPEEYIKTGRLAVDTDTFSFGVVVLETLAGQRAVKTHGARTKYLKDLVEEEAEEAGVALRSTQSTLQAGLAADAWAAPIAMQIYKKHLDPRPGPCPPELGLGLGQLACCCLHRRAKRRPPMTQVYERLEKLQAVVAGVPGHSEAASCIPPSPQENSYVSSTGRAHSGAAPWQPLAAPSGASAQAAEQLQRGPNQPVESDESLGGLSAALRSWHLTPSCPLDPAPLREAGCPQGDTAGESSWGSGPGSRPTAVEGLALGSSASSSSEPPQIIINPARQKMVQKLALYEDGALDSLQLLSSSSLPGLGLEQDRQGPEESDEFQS

RAW264.7 [14] = experiment: Activation of NF-kappaB pathway in LPS-induced mouse RAW264.7 cells expressing EGFP at 5 uM pretreated with compound for 1 hr followed by LPS-induction and measured at 15 min by flow cytometry analysis; format: cell-based; conditions: filed as activator, time 75.0 min
[15] = target: T3, Interleukin-1 receptor-associated kinase 4 (Mus musculus); experiment: Inhibition of IRAK4 in LPS-induced mouse RAW264.7 cells assessed as reduction in ERK level at 1 to 5 uM pretreated with LPS for 1 hr followed by compound administration and measured after 2 hrs by Western blotting analysis; format: cell-based; conditions: dose 1-5 µM
[16] = target: MAP kinase p38 (Mus musculus) (UniProt P47811+O08911+Q9WUI1+Q9Z1B7); experiment: Inhibition of MAPK phosphorylation in LPS-induced mouse RAW264.7 cells at 1 uM pretreated with compound for 1 hr followed by LPS-induction and measured after 2 hrs by Western blot analysis; format: cell-based; conditions: time 3.0 hrs
[17] = target: Mitogen-activated protein kinase kinase kinase kinase 4 (Homo sapiens) (UniProt O95819); experiment: Inhibition of MAP4K4 (unknown origin) at 1 uM relative to control
[18] = target: T3, Interleukin-1 receptor-associated kinase 4 (Mus musculus); experiment: Inhibition of IRAK4 in LPS-induced mouse RAW264.7 cells assessed as effect on IkappaB-alpha level at 1 to 5 uM pretreated with LPS for 1 hr followed by compound administration and measured after 2 hrs by Western blotting analysis; format: cell-based; conditions: dose 1-5 µM
Mus musculus = experiment: Anti-inflammatory activity against LPS-induced acute […] injury C57BL/6 mouse model assessed as reduction in ERK level at 20 mg/kg, IG pretreated with compound for 12 hrs followed by LPS-induction and measured after 6 hrs; format: functional, organism-based; conditions: time 18.0 hrs
[19] = target: Mitogen-activated protein kinase kinase kinase 19 (Homo sapiens) (UniProt Q56UN5); experiment: Inhibition of YSK4 (unknown origin) at 1 uM relative to control
Chain of Mitogen-activated protein kinase kinase kinase 19 (Homo sapiens) (Q56UN5 whole entry): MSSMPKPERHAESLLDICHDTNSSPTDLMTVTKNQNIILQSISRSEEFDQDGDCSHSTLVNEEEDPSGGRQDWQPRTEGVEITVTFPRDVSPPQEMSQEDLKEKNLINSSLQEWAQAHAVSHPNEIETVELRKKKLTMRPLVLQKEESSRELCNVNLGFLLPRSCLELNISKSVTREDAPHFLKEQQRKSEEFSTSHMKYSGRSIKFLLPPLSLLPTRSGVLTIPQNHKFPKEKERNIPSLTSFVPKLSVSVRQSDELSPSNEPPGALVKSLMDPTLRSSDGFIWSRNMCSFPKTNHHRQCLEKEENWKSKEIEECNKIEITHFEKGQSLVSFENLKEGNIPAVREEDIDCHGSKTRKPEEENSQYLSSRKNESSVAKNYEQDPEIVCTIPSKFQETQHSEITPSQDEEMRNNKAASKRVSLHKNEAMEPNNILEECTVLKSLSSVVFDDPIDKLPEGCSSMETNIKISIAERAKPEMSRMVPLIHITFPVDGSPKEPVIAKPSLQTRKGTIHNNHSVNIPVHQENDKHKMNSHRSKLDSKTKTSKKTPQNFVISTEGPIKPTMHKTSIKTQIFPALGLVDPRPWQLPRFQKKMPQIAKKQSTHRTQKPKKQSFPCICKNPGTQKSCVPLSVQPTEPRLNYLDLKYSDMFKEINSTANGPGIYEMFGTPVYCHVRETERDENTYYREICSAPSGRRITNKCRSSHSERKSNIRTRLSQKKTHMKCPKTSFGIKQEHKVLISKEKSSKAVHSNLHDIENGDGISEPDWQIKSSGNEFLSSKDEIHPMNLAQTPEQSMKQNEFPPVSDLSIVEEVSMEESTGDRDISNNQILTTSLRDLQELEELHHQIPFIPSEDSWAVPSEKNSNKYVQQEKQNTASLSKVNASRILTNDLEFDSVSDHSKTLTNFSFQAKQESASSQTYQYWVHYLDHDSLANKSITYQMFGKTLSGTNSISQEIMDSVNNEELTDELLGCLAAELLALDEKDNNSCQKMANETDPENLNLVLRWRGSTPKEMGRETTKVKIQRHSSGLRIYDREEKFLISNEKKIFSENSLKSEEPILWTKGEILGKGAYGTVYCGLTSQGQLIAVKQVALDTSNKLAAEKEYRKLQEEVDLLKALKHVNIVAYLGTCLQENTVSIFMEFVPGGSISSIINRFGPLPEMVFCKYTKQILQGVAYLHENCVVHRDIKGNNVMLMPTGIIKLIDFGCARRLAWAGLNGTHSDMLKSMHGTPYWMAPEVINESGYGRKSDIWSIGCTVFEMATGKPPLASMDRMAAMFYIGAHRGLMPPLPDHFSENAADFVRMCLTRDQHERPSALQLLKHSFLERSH

[20] = target: TRAF2 and NCK-interacting protein kinase (Homo sapiens) (UniProt Q9UKE5); experiment: Inhibition of TNIK (unknown origin) at 1 uM relative to control
RAW264.7 [21] = experiment: Activation of NF-kappaB pathway in LPS-induced mouse RAW264.7 cells at 5 uM pretreated with compound for 1 hr followed by LPS-induction and measured after 6 hrs by flow cytometry analysis; format: cell-based; conditions: filed as activator, time 7.0 hrs
[22] = target: T3, Interleukin-1 receptor-associated kinase 4 (Mus musculus); experiment: Inhibition of IRAK4 in LPS-induced mouse RAW264.7 cells assessed as reduction in JNK level at 1 to 5 uM pretreated with LPS for 1 hr followed by compound administration and measured after 2 hrs by Western blotting analysis; format: cell-based; conditions: dose 1-5 µM
[23] = Drug metabolism in rat hepatocyte assessed as amide hydrolysis-mediated metabolite formation by LC-MS/MS analysis; format: ADME, cell-based; conditions: hepatocytes
[24] = target: Protein cereblon/Interleukin-1 receptor-associated kinase 4 (Homo sapiens, UniProt Q9NWZ3+Q96SW2); experiment: PROTAC activity at IRAK4/CRBN in HEK293T cells assessed as induction of IRAK4 degradation by immunoblotting analysis; format: cell-based
Chain of Protein cereblon/Interleukin-1 receptor-associated kinase 4 (Q96SW2 whole entry, one chain of several): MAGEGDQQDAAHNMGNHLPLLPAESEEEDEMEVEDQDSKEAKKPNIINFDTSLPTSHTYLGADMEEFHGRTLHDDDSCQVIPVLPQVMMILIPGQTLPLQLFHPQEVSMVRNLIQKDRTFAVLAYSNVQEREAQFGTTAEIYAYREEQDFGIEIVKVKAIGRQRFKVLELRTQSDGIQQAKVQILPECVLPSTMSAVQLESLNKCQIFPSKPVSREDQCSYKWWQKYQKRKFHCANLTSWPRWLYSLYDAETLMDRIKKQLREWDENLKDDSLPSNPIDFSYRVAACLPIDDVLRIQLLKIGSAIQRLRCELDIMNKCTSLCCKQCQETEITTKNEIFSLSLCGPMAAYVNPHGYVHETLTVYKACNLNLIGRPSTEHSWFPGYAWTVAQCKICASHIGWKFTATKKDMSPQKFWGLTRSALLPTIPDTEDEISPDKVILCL

SMILES: COc1cc(N2CCN(CC(=O)NCCOCCOCCOCCOCCNc3cccc4c3C(=O)N(C3CCC(=O)NC3=O)C4=O)CC2)ccc1NC(=O)c1cccc(-c2ccn[nH]2)n1 (stereo not given)
- inhibition [1]: inactive

SMILES: COc1cc(N2CCN(C(=O)C3CCN(c4ccc5c(c4)C(=O)N(C4CCC(=O)NC4=O)C5=O)CC3)CC2)ccc1NC(=O)c1cccc(-c2ccn[nH]2)n1 (stereo not given)
- inhibition [1]: inactive

SMILES: COc1cc(N2CCN(C(=O)C3CN(c4ccc5c(c4)C(=O)N(C4CCC(=O)NC4=O)C5=O)C3)CC2)ccc1NC(=O)c1cccc(-c2ccn[nH]2)n1 (stereo not given)
- Activity [2]: 26%
- IC50 [3]: < 100 nM

SMILES: COc1cc(N2CCOCC2)ccc1NC(=O)c1cccc(-c2ccn[nH]2)n1
- inhibition [4]: Active
- Activity (RAW264.7 [5]): Active
- inhibition [6]: inactive
- inhibition [7]: inactive
- inhibition [8]: inactive
- Activity [2]: 100%
- inhibition [9]: inactive
- inhibition [10]: > 95%
- inhibition [11]: inactive
- inhibition [12]: Active
- inhibition [13]: > 95%
- Activity (RAW264.7 [14]): Active
- inhibition [15]: Active
- inhibition [16]: Active
- inhibition [17]: inactive
- inhibition [18]: Active
- Activity (Mus musculus): Active
- inhibition [19]: inactive
- inhibition [20]: inactive
- Activity (RAW264.7 [21]): Active
- inhibition [22]: Active

SMILES: COc1cc(N2CCN(CC(=O)NCCOCCOCCNc3cccc4c3C(=O)N(C3CCC(=O)NC3=O)C4=O)CC2)ccc1NC(=O)c1cccc(-c2ccn[nH]2)n1 (stereo not given)
- Drug metabolism [23]: Metabolite_Detected

SMILES: COc1cc(N2CCN(C(=O)CCCCCCCCCCCNc3cccc4c3C(=O)N(C3CCC(=O)NC3=O)C4=O)CC2)ccc1NC(=O)c1cccc(-c2ccn[nH]2)n1 (stereo not given)
- Activity [2]: 32%
- IC50 [3]: < 100 nM

SMILES: CC(C)Nc1cc(-n2ccc3cc(C#N)cnc32)ncc1C(=O)NC1CCC(C(=O)NCCOCCNC(=O)COc2cccc3c2C(=O)N(C2CCC(=O)NC2=O)C3=O)CC1 (stereo not given)
- DC50 [24]: 405 nM

SMILES: COc1cc(N2CCN(CC(=O)NCCOCCOCCNC(=O)C3CCN(c4ccc5c(c4)C(=O)N(C4CCC(=O)NC4=O)C5=O)CC3)CC2)ccc1NC(=O)c1cccc(-c2ccn[nH]2)n1 (stereo not given)
- inhibition [1]: inactive

SMILES: COc1cc(N2CCN(C(=O)CCCCCNc3cccc4c3C(=O)N(C3CCC(=O)NC3=O)C4=O)CC2)ccc1NC(=O)c1cccc(-c2ccn[nH]2)n1 (stereo not given)
- Activity [2]: 55%
- IC50 [3]: < 100 nM

SMILES: COc1cc(N2CCN(CC(=O)NCCCCCCCCNc3cccc4c3C(=O)N(C3CCC(=O)NC3=O)C4=O)CC2)ccc1NC(=O)c1cccc(-c2ccn[nH]2)n1 (stereo not given)
- inhibition [1]: inactive

SMILES: COc1cc(N2CCN(CC(=O)NCCNc3cccc4c3C(=O)N(C3CCC(=O)NC3=O)C4=O)CC2)ccc1NC(=O)c1cccc(-c2ccn[nH]2)n1 (stereo not given)
- Activity [2]: 63%
- IC50 [3]: < 100 nM

From ChEMBL document CHEMBL5506038, “Discovery of LC-MI-3: A Potent and Orally Bioavailable Degrader of Interleukin-1 Receptor-Associated Kinase 4 for the Treatment of Inflammatory Diseases” (J Med Chem, 2024)
